# Like-named read-outs stand apart in the source and are kept apart here.
# What was measured:
# MV4-11 AML cells = assay: MV4-11 AML xenograft implanted subcutaneously, combination with venetoclax; format: in vivo, mice; details: administered alone (Aza-T-dCyd 2 mpk), FIGS. 30 and 31
# Method: After establishing a xenograft systemic AML model in which MV4-11 AML cells were implanted subcutaneously in mice, Aza-T-dCyd alone at 2.0 mpk for 1 cycle (5 days on, 2 days off, 5 days on, 9 days off) was administered (PO) or Aza-T-dCyd 0.5, 1.0 or 2.0 mpk plus venetoclax 50 mpk or 100 mpk administered orally (PO) for 1 cycle (venetoclax on for 5 days, off for 2 days, repeated for 3 weeks). Anti-cancer efficacy was determined in disease models in which azacitidine 5.0 mpk was administered intraperitoneally (IP) alone or in combination with optimal dose of azacitidine (2.5 mpk) and venetoclax 50 mpk or 100 mpk as a control.
# cytidine deaminase = assay: Degradation by cytidine deaminase; details: compared to Decitabine/Azacytidine, oral administration
# Source text: Decitabine/Azacytidine is susceptible to metabolism by cytidine deaminases in the body, resulting in an unstable PK profile that limits its efficacy.
# DNMT1 [1] = target: T1, DNMT1 (Homo sapiens, UniProt P26358); assay: DNMT1 expression in HL-60 xenograft tumor samples; format: in vivo, mice; parameters: tumor samples were collected on day 11 to determine the expression of DNMT1, DNMT3A, and DNMT3B; from tissue; host or cells: HL-60 xenograft tumour samples (mouse host); details: 2 mg/kg NTX-301 or 0.75 mg/kg Decitabine intraperitoneally, day 11
# Method: (§1) As the efficacy of DNMT1 inhibitors correlates with their selective profile for targeting DNMT1 and the de novo methyltransferases DNMT3A and DNMT3B, we confirmed the expression of DNMT1, DNMT3A, and DNMT3B in the Aza-T-dCyd and Decitabine treated groups in this xenograft model (FIG. 27).
# (§2) In the HL-60 xenograft mice model, 2 mg/kg of NTX-301 (Aza-T-dCyd) or 0.75 mg/kg of Decitabine were administered intraperitoneally, and then tumor samples were collected on day 11 to determine the expression of DNMT1, DNMT3A, and DNMT3B. […] On the other hand, the expression levels of DNMT3A and DNMT3B were different in the Aza-T-dCyd and Decitabine treatment groups.
# leukemia cell lines = assay: Growth-inhibitory activity on leukemia cell lines (GI50); format: cell-based; details: 72 h, read-out: GI50 values (half maximal growth inhibitory concentrations)
# Method: The growth-inhibitory activity of Aza-T-dCyd, a DNMT1 inhibitor, was measured in leukemia cell lines to determine its inhibitory effect on cell proliferation.
# The growth-inhibitory activity of DNMT1 inhibitors, Aza-T-dCyd and Decitabine, was measured on leukemia cell lines to determine their effect on cell proliferation.
# DNMT1 [2] = target: T1, DNMT1; assay: DNMT1 protein Western blotting in cancer cell lines; format: cell-based; parameters: endogenous in cells; host or cells: MV4-11, KG-1a, CCRF-CEM, NCI-H23, HCT-116, IGROV-1 (also HL-60, THP-1)
# DNA methylation = assay: DNA demethylation; format: cell-based
# Source text: Through DNA demethylation caused by Aza-T-dCyd treatment, various tumor suppressor genes and genes required for differentiation induction of AML cells were reactivated, and the reactivated expression patterns of these genes were confirmed by RNA-seq data analysis (FIG. 24).
# BL0382PD PDX (bladder) = format: in vivo, Mouse; details: NSG, mouse, in vivo, 0.75 mg/kg, 2 cycles
# Source text: The efficacy of Aza-T-dCyd was confirmed by tumor growth curves after administration of Aza-T-dCyd in various solid cancer xenograft models. […]
# HL-60 AML xenograft = HL-60 AML xenograft model; format: in vivo
# [3] = tested on: systemic MV4-11 engraftment model
# Method: After establishing a systemic MV4-11 engraftment model that more accurately depicts the disease in humans, Aza-T-dCyd was administered orally at doses ranging from 0.4 to 1.5 mg/kg.
# After establishment of the systemic MV4-11 engraftment model, Aza-T-dCyd was administered orally at doses of 1.5, 2.0, and 2.5 mg/kg (using the standard dose/dosing schedule used in preclinical trials for decitabine/azacytidine).
# After establishing a systemic MV4-11 engraftment model, blood was collected at pre-treatment (Day 21) and mid-treatment (Day 36, 56, 77) in the Aza-T-dCyd and Decitabine/Azacytidine groups and analyzed for complete blood count (CBC) values.
# To determine whether the anti-cancer efficacy in the systemic MV4-11 engraftment model was directly related to the ability to suppress the number of cancer cells, we performed experiments to measure body luminescence after systemic engraftment using the luciferase-transfected Mv4-11 cell line.
# DNMT3B = DNMT3B (Homo sapiens, UniProt Q9UBC3); assay: DNMT3B expression in HL-60 xenograft tumor samples; format: in vivo, mice; parameters: tumor samples were collected on day 11 to determine the expression of DNMT1, DNMT3A, and DNMT3B; from tissue; host or cells: HL-60 xenograft tumour samples (mouse host); details: 2 mg/kg NTX-301 or 0.75 mg/kg Decitabine intraperitoneally, day 11
# Method: as §1, §2
# [4] = tested on: p15 tumor suppressor gene; assay: p15 tumor suppressor gene re-expression (RT-PCR) in MV4-11 cells; format: cell-based; details: MV4-11 cell line
# Method: Therefore, to determine the re-expression of tumor suppressor genes through epigenetic regulation mechanisms induced by DNMT1 inhibition upon Aza-T-dCyd (NTX-301) treatment, MV4-11 cells, an AML cell line, were treated with Aza-T-dCyd at different concentrations. […] Table 1 below compares the degree of p15 mRNA re-expression after DNMT1 inhibitor (Aza-T-dCyd/Decitabine) treatment in the MV4-11 cell line, an AML cell (fold increase from 0 nM is shown).
# HCT-116 (colorectal) = HCT-116 (colorectal) xenograft model; format: in vivo, Mouse; details: colorectal (HCT-116) xenograft, Decitabine comparator, dose not given
# Method: The efficacy of Aza-T-dCyd was confirmed by tumor growth curves after administration of Aza-T-dCyd in various solid cancer xenograft models. Aza-T-dCyd at a dose of 1~2 mg/kg was administered repeatedly for 2~6 cycles in QD×5, showing excellent anti-cancer effects (evidenced by test/control (T/C) value≤40%).
# T1 sequence (P26358 whole entry): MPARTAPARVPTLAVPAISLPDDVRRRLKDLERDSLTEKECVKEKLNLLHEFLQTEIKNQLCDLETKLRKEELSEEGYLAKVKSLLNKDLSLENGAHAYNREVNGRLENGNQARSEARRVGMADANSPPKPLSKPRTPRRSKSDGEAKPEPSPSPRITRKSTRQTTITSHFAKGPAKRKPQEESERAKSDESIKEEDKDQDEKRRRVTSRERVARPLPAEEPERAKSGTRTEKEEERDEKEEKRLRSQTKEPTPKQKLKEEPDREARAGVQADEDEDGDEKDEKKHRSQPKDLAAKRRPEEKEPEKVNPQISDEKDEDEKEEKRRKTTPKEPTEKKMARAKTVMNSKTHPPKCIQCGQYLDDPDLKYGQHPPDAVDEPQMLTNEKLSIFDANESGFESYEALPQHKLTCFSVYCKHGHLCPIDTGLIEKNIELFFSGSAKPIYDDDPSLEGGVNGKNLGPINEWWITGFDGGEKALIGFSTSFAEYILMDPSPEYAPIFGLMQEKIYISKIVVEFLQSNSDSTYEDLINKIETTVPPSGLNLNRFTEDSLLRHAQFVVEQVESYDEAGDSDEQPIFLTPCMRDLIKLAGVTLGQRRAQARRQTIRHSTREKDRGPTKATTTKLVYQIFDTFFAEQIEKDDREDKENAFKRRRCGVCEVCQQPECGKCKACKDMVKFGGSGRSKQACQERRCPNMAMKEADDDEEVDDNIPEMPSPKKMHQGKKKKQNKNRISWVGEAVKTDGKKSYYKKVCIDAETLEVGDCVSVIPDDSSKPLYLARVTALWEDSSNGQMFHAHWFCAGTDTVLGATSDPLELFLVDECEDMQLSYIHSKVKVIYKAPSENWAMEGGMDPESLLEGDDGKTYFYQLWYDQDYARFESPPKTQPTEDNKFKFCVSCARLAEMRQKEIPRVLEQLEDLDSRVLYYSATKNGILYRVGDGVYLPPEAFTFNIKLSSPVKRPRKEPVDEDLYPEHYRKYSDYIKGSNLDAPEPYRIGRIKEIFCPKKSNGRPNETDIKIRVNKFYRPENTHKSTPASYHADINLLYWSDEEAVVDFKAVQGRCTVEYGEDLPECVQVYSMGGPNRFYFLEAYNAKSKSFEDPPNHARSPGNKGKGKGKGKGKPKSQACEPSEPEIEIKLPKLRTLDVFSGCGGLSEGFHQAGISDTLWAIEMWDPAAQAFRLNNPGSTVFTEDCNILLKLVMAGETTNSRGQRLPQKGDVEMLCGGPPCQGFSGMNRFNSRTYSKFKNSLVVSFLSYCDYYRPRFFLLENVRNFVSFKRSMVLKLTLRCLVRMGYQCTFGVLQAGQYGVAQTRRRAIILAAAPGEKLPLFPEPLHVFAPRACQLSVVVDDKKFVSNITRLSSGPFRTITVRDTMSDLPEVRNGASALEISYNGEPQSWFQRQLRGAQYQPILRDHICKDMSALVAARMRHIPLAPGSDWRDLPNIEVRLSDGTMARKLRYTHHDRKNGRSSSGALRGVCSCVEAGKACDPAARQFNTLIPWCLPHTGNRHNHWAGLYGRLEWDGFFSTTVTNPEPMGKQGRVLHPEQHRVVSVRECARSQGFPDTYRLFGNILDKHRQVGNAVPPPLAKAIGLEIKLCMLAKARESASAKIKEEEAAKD
smiles,measurement,setting,value
CC1(C)CCC(CN2CCN(c3ccc(C(=O)NS(=O)(=O)c4ccc(NCC5CCOCC5)c([N+](=O)[O-])c4)c(Oc4cnc5[nH]ccc5c4)c3)CC2)=C(c2ccc(Cl)cc2)C1 [Venetoclax],"anti-cancer effect (tumor volume), single agent",MV4-11 AML cells,limited tumor regression
Nc1ncn(C2CC(O)C(COP(=O)(O)OP(=O)(O)OP(=O)(O)O)S2)c(=O)n1 (stereo not drawn) [aza-T-dCTP],rate of degradation by cytidine deaminase,cytidine deaminase,slower rate of degradation by cytidine deaminase
"Nc1ncn([C@H]2C[C@H](O)[C@@H](CO)O2)c(=O)n1 [Decitabine, 5-aza-2′-deoxycytidine]",DNMT1 expression in tumor samples,DNMT1 [1],significantly reduced
same,GI50,leukemia cell lines,0.024 to 4.3 µM
same,DNMT1 inhibition,"DNMT1 [2]; MV4-11 (AML cell line) cells, different concentrations, FIG. 10",inhibits DNMT1
same,pattern of DNA demethylation,DNA methylation,genome-wide demethylation
same,toxicity,BL0382PD PDX (bladder),showed toxicity after 2 cycles
same,tolerability above the maximum dose,HL-60 AML xenograft; above 0.75 mg/kg,animals died above this dose
same,tumor suppression,HL-60 AML xenograft; maximum dose 0.75 mg/kg,no tumor suppression
same,anti-AML activity and survival,"[3]; Aza-T-dCyd oral 1.5, 2.0 and 2.5 mg/kg, decitabine/azacytidine at standard preclinical dose/schedule",no therapeutic effect
same,"complete blood count (WBC, RBC, Neutrophil, Platelet)","[3]; blood at Day 21, 36, 56, 77",all individuals died before blood samples were collected
same,DNMT3B expression level in tumor samples,DNMT3B,no effect was observed
same,p15 mRNA re-expression,[4]; 6 nM,1.3 ± 0.27 fold increase from 0 nM
same,p15 mRNA re-expression,[4]; 20 nM,1.7 ± 0.85 fold increase from 0 nM
same,p15 mRNA re-expression,[4]; 60 nM,2.2 ± 0.52 fold increase from 0 nM
same,p15 mRNA re-expression,[4]; 200 nM,4.3 ± 0.83 fold increase from 0 nM
same,T/C,HCT-116 (colorectal),45%
"Nc1ncn([C@@H]2O[C@H](CO)[C@@H](O)[C@H]2O)c(=O)n1 [Azacytidine, reference compound]","complete blood count (WBC, RBC, Neutrophil, Platelet)","[3]; mouse, in vivo",severe neutropenia
"Nc1ccn([C@H]2C[C@H](O)[C@@H](CO)S2)c(=O)n1 [T-dCyd, reference compound]",DNMT1 inhibition,"DNMT1 [2]; CCRF-CEM (ALL cell line) cells, FIG. 12",inhibits DNMT1
same,DNMT1 inhibition,"DNMT1 [2]; KG-1a (AML cell line) cells, FIG. 11",inhibits DNMT1
same,DNMT1 inhibition,"DNMT1 [2]; NCI-H23, HCT-116 and IGROV-1 cell lines, FIG. 13",inhibits DNMT1

# From US12708630B2, “Combined therapy of 4′-thio-5-aza-2′-deoxycytidine and Venetoclax” (PINOTBIO, INC., priority 2021, dated 2026)
